# Read-outs that look alike come from different tables or passages of the source.
# Assays:
# [1] = system: pancreatic cancer cells PANC-1; experiment: Cell proliferation assay (CCK-8); assay type: cell-based, human; settings: Homo sapiens, PANC-1, 72 h
# Description: (§1) CCK-8 method: The CCK-8 method is a highly sensitive, non-radioactive colorimetric assay for the determination of the number of viable cells in cell proliferation or cytotoxicity assays. The orange formazan dye produced by the bioreduction of CCK-8 by intracellular dehydrogenase is soluble in the cell culture medium, and the amount of formazan dye produced is proportional to the number of living cells. The kit used in this method is the tetrazolium salt-WST-8 (2-(2-methoxy-4-nitrophenyl)-3-(4-nitrophenyl)-5-(2,4-disulfophenyl)-2H-tetrazolium monosodium salt) developed by Dojindo Chemical Research Institute (Dojindo), which is capable of being reduced to a water-soluble formazan dye in the presence of the electronic carrier 1-Methoxy PMS.
# (§2) Human cervical cancer cells Hela, pancreatic cancer cells PANC-1, esophageal cancer cells Eca-109, human leukemia cells K562, human lung cancer cells A549, human liver cancer cells HepG2, human gastric cancer cells MKN-45, human breast cancer cells MCF7 were cultured in DMEM medium containing 10% FBS (fetal bovine serum), 100 U/mL penicillin and 100 μg/ml streptomycin. Hepatocellular carcinoma cells Bel-7402 were cultured in RPMI-1640 medium containing 10% FBS (fetal bovine serum), 100 U/ml penicillin and 100 μg/ml streptomycin. All cells were placed in a cell culture incubator at 37° C. with 5% CO2. Cells fluid was changed every 3-5 days, and after 80% cell fusion, trypsin digestion and passaging were performed to keep the cells in good logarithmic growth phase.
# (§3) All the samples to be tested were dissolved in DMSO.
# (§4) Cells in logarithmic growth phase were inoculated in 96-well plates with 5000 cells/well respectively, and after 24 h of incubation, samples were added (final concentrations as shown in the table), and biplicate wells were set up for each sample. The amount of solvent of DMSO was not higher than 2‰. After 72 h, 10 μL of CCK-8 solution was added to each well and incubated for 1.5˜3 h at 37° C. The OD value at 450 nm was measured on an plate reader. Inhibition rate (%)=(1−[(OD450 dosed well−OD450 blank well)/(OD450 control well−OD450 blank well)])×100%
# (§5) The fitted IC50 values were calculated using the log (inhibitor) vs. response—Variable slop analysis method in GraphPad Prism software.
# [2] = system: esophageal cancer cells Eca-109; experiment: Cell proliferation assay (CCK-8); assay type: cell-based, human; settings: Homo sapiens, Eca-109, 72 h
# Description: as §1, §2, §3, §4, §5
# [3] = system: human liver cancer cells HepG2; experiment: Cell proliferation assay (CCK-8); assay type: cell-based; settings: Homo sapiens, HepG2, 72 h
# Description: as §1, §2, §3, §4, §5
# [4] = system: human leukemia cells K562; experiment: Cell proliferation assay (CCK-8); assay type: cell-based; settings: Homo sapiens, K562, 72 h
# Description: as §1, §2, §3, §4, §5
# [5] = system: Human cervical cancer cells Hela; experiment: Cell proliferation assay (CCK-8); assay type: cell-based; settings: Homo sapiens, 72 h
# Description: as §1, §2, §3, §4, §5
# [6] = system: human lung cancer cells A549; experiment: Cell proliferation assay (CCK-8); assay type: cell-based; settings: Homo sapiens, A549, 72 h
# Description: as §1, §2, §3, §4, §5
# [7] = system: human breast cancer cells MCF7; experiment: Cell proliferation assay (CCK-8); assay type: cell-based; settings: Homo sapiens, MCF7, 72 h
# Description: as §1, §2, §3, §4, §5
# [8] = system: human gastric cancer cells MKN-45; experiment: Cell proliferation assay (CCK-8); assay type: cell-based; settings: Homo sapiens, MKN-45, 72 h
# Description: as §1, §2, §3, §4, §5
# [9] = Solubility test (shake 37° C., 24 h, HPLC); assay type: physicochemical; settings: thermodynamic from solid, x ± s
# Protocol: The term “solubility” refers to the mass of solute dissolved when a solid substance reaches saturation state in 100 g solvent at a certain temperature. Solubility test refer to the following references: ZHU Shang-bin, et al. Preparation, characterization, and physicochemical properties of arbutin phospholipid complex[J]. Chinese Traditional and Herbal Drugs. 2020, 1-10.
# Methods: Excess BFA and the compounds disclosed herein were added to 10 mL of three solvents, methanol, acetone and 5% DMSO+95% H2O, respectively, and shaken on a shaker at 37° C. at 100 r/min for 24 h. After 24 h, the samples were centrifuged at 15 000 r/min for 15 min to remove the undissolved compounds. The supernatant was filtered using a 0.45 μm membrane filter. The supernatant was appropriately diluted with methanol and contents of the compounds were determined by HPLC method to calculate the solubility.
# [10] = Pharmacokinetic evaluation (plasma BFA by LC/MS/MS); assay type: in vivo, SD rats; settings: rat, in vivo, 40 mg/kg
# Protocol: SD rats were weighed after an overnight fasting of 15 hours and randomly grouped according to weights. The appropriate amount of the compound was accurately weighed, and a final volume of 5% DMSO, 10% Solutol, and 85% Saline was added and vortexed or sonicated to make a thorough mixing to provide a 4 mg/mL solution for intravenous administration (iv.). Venous blood was taken at the time points of 0, 0.083 (iv. group only), 0.25, 0.5, 1.0, 2.0, 5.0, 7.0 and 24 h, via jugular vein or other suitable means, with approximately 0.20 mL of each sample collected, anticoagulated with sodium heparin (with 6.25 μL of 200 mM DDVP/tube added), and placed on ice after collection. The plasma was separated by centrifugation within 2 hours (centrifugal force 6800 g, 6 min, 2-8° C.). The collected plasma samples were stored in a −70° C. refrigerator before analysis, and the remaining plasma samples after analysis were kept stored at −20° C. or −70° C. until LC/MS/MS analysis was performed. The accuracy of QC samples was evaluated while analyzing the samples, and more than 66% of the QC samples were required to have an accuracy between 80-120%. When plasma drug concentration-time curves were plotted, BLQ were recorded as 0. For the calculation of pharmacokinetic parameters, the concentration before dosing was counted as 0; BLQ before Cmax (including “No peak”) was counted as 0; BLQ after Cmax (including “No peak”) was not included in the calculation. Pharmacokinetic parameters such as AUC(0-t), T1/2, Cmax, Tmax and MRT were calculated according to the blood concentration data of BFA at different time points using WinNonlin.
# [11] = aqueous with cosolvent or surfactant or cyclodextrin, 5% DMSO + 95% H2O, n = 3, read-out: Solubility, 5% DMSO + 95% H2O
# [12] = organic solvent or mixture, acetone, n = 3, read-out: Solubility, Acetone
# [13] = organic solvent or mixture, methanol, n = 3, read-out: Solubility, Methanol
IC50 [1] [nM],IC50 [2] [nM],IC50 [3] [nM],IC50 [4] [nM],IC50 [5] [nM],IC50 [6] [nM],IC50 [7] [nM],IC50 [8] [nM],"solubility at 24 h [9, 11] [µg/mL]","solubility at 24 h [9, 12] [µg/mL]","solubility at 24 h [9, 13] [µg/mL]",Blood concentrations detected within 1 h [10],Drug in blood after 1 h [10],Compound
< 100,100 to 1000,> 10000,1000 to 10000,100 to 1000,100 to 1000,1000 to 10000,100 to 1000,,,,,,"COc1cccc2c1C(=O)c1c(O)c3c(c(O)c1C2=O)C[C@@](O)(C(=O)CO)C[C@@H]3O[C@H]1C[C@H](N)[C@H](O)[C@H](C)O1 [Adriamycin, reference compound]"
100 to 1000,100 to 1000,100 to 1000,100 to 1000,< 100,100 to 1000,100 to 1000,100 to 1000,2480 ± 1550,69400 ± 2230,73300 ± 3520,,,"C[C@H]1CCC/C=C/[C@@H]2C[C@H](OC(=O)OCc3ccccn3)C[C@H]2[C@H](O)/C=C/C(=O)O1 [Compound 2, BFA-7-(pyridine-2-ylmethyl)carbonate]"
100 to 1000,100 to 1000,100 to 1000,100 to 1000,100 to 1000,100 to 1000,< 100,< 100,2650 ± 1600,69600 ± 1740,70300 ± 4350,,,"C[C@H]1CCC/C=C/[C@@H]2C[C@H](OC(=O)OCc3ccncc3)C[C@H]2[C@H](O)/C=C/C(=O)O1 [Compound 3, BFA-7-(pyridine-4-ylmethyl)carbonate]"
< 100,100 to 1000,100 to 1000,100 to 1000,< 100,100 to 1000,100 to 1000,100 to 1000,2720 ± 330,63800 ± 3530,69400 ± 3510,,,"C[C@H]1CCC/C=C/[C@@H]2C[C@H](OC(=O)OCc3cncc(F)c3)C[C@H]2[C@H](O)/C=C/C(=O)O1 [Compound 4, BFA-7-(5-fluoro-pyridine-3-ylmethyl)carbonate]"
100 to 1000,< 100,100 to 1000,100 to 1000,100 to 1000,100 to 1000,100 to 1000,< 100,,,,,,C[C@H]1CCC/C=C/[C@@H]2C[C@H](OC(=O)OCc3ccc(N)nc3)C[C@H]2[C@H](O)/C=C/C(=O)O1 [Compound 5]
100 to 1000,100 to 1000,100 to 1000,100 to 1000,1000 to 10000,100 to 1000,100 to 1000,1000 to 10000,,,,,,C[C@H]1CCC/C=C/[C@@H]2C[C@H](OC(=O)OCc3ccc(N4CCCCC4)nc3)C[C@H]2[C@H](O)/C=C/C(=O)O1 [Compound 8]
100 to 1000,100 to 1000,100 to 1000,100 to 1000,< 100,< 100,100 to 1000,100 to 1000,2700 ± 770,68800 ± 2530,69000 ± 1810,,,"C[C@H]1CCC/C=C/[C@@H]2C[C@H](OC(=O)OCCc3cccnc3)C[C@H]2[C@H](O)/C=C/C(=O)O1 [Compound 9, BFA-7-(pyridine-3-ylethyl)carbonate]"
100 to 1000,< 100,100 to 1000,100 to 1000,100 to 1000,100 to 1000,100 to 1000,100 to 1000,,,,,,C[C@H]1CCC/C=C/[C@@H]2C[C@H](OC(=O)OCCCc3cccnc3)C[C@H]2[C@H](O)/C=C/C(=O)O1 [Compound 10]
100 to 1000,100 to 1000,< 100,100 to 1000,100 to 1000,100 to 1000,100 to 1000,100 to 1000,,,,,,C[C@H]1CCC/C=C/[C@@H]2C[C@H](OC(=O)OCc3cncc4ccccc34)C[C@H]2[C@H](O)/C=C/C(=O)O1 [Compound 12]
1000 to 10000,1000 to 10000,1000 to 10000,100 to 1000,1000 to 10000,100 to 1000,100 to 1000,1000 to 10000,510 ± 130,21200 ± 1120,20400 ± 1410,low blood concentrations,basically undetectable,"C[C@H]1CCC/C=C/[C@@H]2C[C@H](OC(=O)OCc3cccnc3)C[C@H]2[C@H](OC(=O)OCc2cccnc2)/C=C/C(=O)O1 [Compound D, reference compound]"

Compound,IC50 [1] [nM],IC50 [2] [nM],IC50 [3] [nM],IC50 [4] [nM],IC50 [5] [nM],IC50 [6] [nM],IC50 [7] [nM],IC50 [8] [nM],"solubility at 24 h [9, 11] [µg/mL]","solubility at 24 h [9, 12] [µg/mL]","solubility at 24 h [9, 13] [µg/mL]",Blood concentrations detected within 1 h [10],Drug in blood after 1 h [10]
Cc1ccc(COC(=O)O[C@@H]2C[C@H]3[C@H](O)/C=C/C(=O)O[C@@H](C)CCC/C=C/[C@@H]3C2)cn1 [Compound 7],100 to 1000,100 to 1000,100 to 1000,100 to 1000,100 to 1000,100 to 1000,100 to 1000,100 to 1000,,,,,
"C[C@H]1CCC/C=C/[C@@H]2C[C@H](OC(=O)OCCc3ccccc3)C[C@H]2[C@H](O)/C=C/C(=O)O1 [Compound A, reference compound]",1000 to 10000,100 to 1000,100 to 1000,100 to 1000,1000 to 10000,100 to 1000,1000 to 10000,1000 to 10000,250 ± 130,9360 ± 1260,9930 ± 1210,,
"C[C@H]1CCC/C=C/[C@@H]2C[C@H](OC(=O)OCc3cccc(F)c3)C[C@H]2[C@H](O)/C=C/C(=O)O1 [Compound B, reference compound]",100 to 1000,100 to 1000,100 to 1000,1000 to 10000,1000 to 10000,1000 to 10000,100 to 1000,1000 to 10000,260 ± 160,9550 ± 1230,9760 ± 1210,,
"COC(=O)O[C@@H]1C[C@H]2[C@H](O)/C=C/C(=O)O[C@@H](C)CCC/C=C/[C@@H]2C1 [Compound C, reference compound]",100 to 1000,1000 to 10000,100 to 1000,100 to 1000,1000 to 10000,100 to 1000,100 to 1000,1000 to 10000,250 ± 230,9260 ± 1130,9440 ± 1510,,
